Data published in BindingDB's records for doi:10.1016/j.bmcl.2014.04.013 (University of Utah, 2014).

Experiment: Agonist activity at AHR in FVB/N mouse primary mammary epithelial cells assessed as blockade of mammary branching morphogenesis after 144 hrs by microscopic analysis in presence of FGF2

Row | EC50 | SMILES
1 | 1200 nM | Clc1ccc(-c2nc(-c3ccccc3)no2)c(Cl)c1
2 | 1400 nM | Nc1cc(Cl)ccc1-c1nc(-c2ccccc2)no1
3 | 2200 nM | O=[N+]([O-])c1cc(F)ccc1-c1nc(-c2ccccc2)no1
4 | 3200 nM | Nc1cc(C(F)(F)F)ccc1-c1nc(-c2ccccc2)no1
5 | > 10000 nM | Clc1ccc(-c2nc(-c3ccccc3)no2)c(Cl)c1Cl
